The NIST ThermoML archive (doi:10.1021/je049814b)
± gives the expanded uncertainty stated by the source.

Details: Liquid, Coaxial cylinder method

O [water]
thermal conductivity [W/m/K]
Details	290.6 K	329.7 K	367.1 K	395.1 K	440.7 K	484.2 K	514.2 K	549.8 K	575.4 K
1000 kPa	0.592 ± 0.017	0.649 ± 0.018	0.679 ± 0.019	0.683 ± 0.019	–	–	–	–	–
10000 kPa	0.602 ± 0.017	0.655 ± 0.018	0.684 ± 0.019	0.692 ± 0.019	0.683 ± 0.019	0.66 ± 0.019	0.638 ± 0.018	0.587 ± 0.017	0.54 ± 0.015
40000 kPa	0.613 ± 0.017	0.665 ± 0.019	0.697 ± 0.02	0.709 ± 0.02	0.703 ± 0.02	0.684 ± 0.019	0.662 ± 0.019	0.628 ± 0.018	0.594 ± 0.017
